Measurements taken from ChEMBL document CHEMBL1201862, “PubChem BioAssay data set” (2004).
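Grown in 96-well plates, cells were treated for 48 hours with each compound at five concentrations. Insufficient inhibition: endpoint recorded as highest concentration tested. GI50: concentration for 50% inhibition of growth.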 Active and inactive are the calls of the source. Cut-off read from the data, not from the text of the source: active = GI50 up to about 1.1 µM and inactive = higher.

How the values were obtained:
Assay in all cases: NCI anticancer screen, dose series, 48 h
786-0 = tested on: 786-0
A498 = tested on: A498
A549 = tested on: A549
ACHN = tested on: ACHN
CAKI-1 = tested on: CAKI-1
CCRF-CEM = tested on: CCRF-CEM
COLO 205 = tested on: COLO 205
DLD-1 = tested on: DLD-1
DMS-114 = tested on: DMS-114
DMS-273 = tested on: DMS-273
EKVX = tested on: EKVX
HCC 2998 = tested on: HCC 2998
HCT-116 = tested on: HCT-116
HCT-15 = tested on: HCT-15
HL-60 = tested on: HL-60
HOP-18 = tested on: HOP-18
HOP-62 = tested on: HOP-62
IGROV-1 = tested on: IGROV-1
K562 = tested on: K562
KM-20L2 = tested on: KM-20L2
KM12 = tested on: KM12
LXFL 529 = tested on: LXFL 529
M14 = tested on: M14
M19-MEL = tested on: M19-MEL
MOLT-4 = tested on: MOLT-4
Malme-3M = tested on: Malme-3M
NCI-H226 = tested on: NCI-H226
NCI-H460 = tested on: NCI-H460
NCI-H522 = tested on: NCI-H522
OVCAR-3 = tested on: OVCAR-3
OVCAR-4 = tested on: OVCAR-4
OVCAR-8 = tested on: OVCAR-8
RPMI-8226 = tested on: RPMI-8226
RXF 393 = tested on: RXF 393
RXF 631 = tested on: RXF 631
SF-268 = tested on: SF-268
SF-539 = tested on: SF-539
SK-MEL-28 = tested on: SK-MEL-28
SK-MEL-2 = tested on: SK-MEL-2
SK-MEL-5 = tested on: SK-MEL-5
SK-OV-3 = tested on: SK-OV-3
SN12C = tested on: SN12C
SNB-19 = tested on: SNB-19
SNB-75 = tested on: SNB-75
SNB-78 = tested on: SNB-78
SR = tested on: SR
SW-620 = tested on: SW-620
TK-10 = tested on: TK-10
U-251 = tested on: U-251
UACC-257 = tested on: UACC-257
UACC-62 = tested on: UACC-62
UO-31 = tested on: UO-31
HT-29 = tested on: HT-29
LOX IMVI = tested on: LOX IMVI
NCI-H23 = tested on: NCI-H23
OVCAR-5 = tested on: OVCAR-5
SF-295 = tested on: SF-295
HOP-92 = tested on: HOP-92

Measured: GI50

O=C(O)C1CCc2nnc(-c3ccccc3)n21 (stereo unspecified)
inactive: 786-0 > 100 µM | A498 > 100 µM | A549 > 100 µM | ACHN > 100 µM | CAKI-1 > 100 µM | CCRF-CEM > 100 µM | COLO 205 > 100 µM | DLD-1 > 100 µM | DMS-114 > 100 µM | DMS-273 > 100 µM | EKVX > 100 µM | HCC 2998 > 100 µM | HCT-116 > 100 µM | HL-60 > 100 µM | HOP-18 > 100 µM | HOP-62 > 100 µM | IGROV-1 > 100 µM | K562 > 100 µM | KM-20L2 > 100 µM | KM12 > 100 µM | LXFL 529 > 100 µM | M14 > 100 µM | M19-MEL > 100 µM | MOLT-4 > 100 µM | Malme-3M > 100 µM | NCI-H226 > 100 µM | NCI-H460 > 100 µM | NCI-H522 > 100 µM | OVCAR-3 > 100 µM | OVCAR-4 > 100 µM | OVCAR-8 > 100 µM | RPMI-8226 > 100 µM | RXF 393 > 100 µM | RXF 631 > 100 µM | SF-268 > 100 µM | SF-539 > 100 µM | SK-MEL-28 > 100 µM | SK-MEL-2 > 100 µM | SK-MEL-5 > 100 µM | SK-OV-3 > 100 µM | SN12C > 100 µM | SNB-19 > 100 µM | SNB-75 > 100 µM | SNB-78 > 100 µM | SR > 100 µM | SW-620 > 100 µM | TK-10 > 100 µM | U-251 > 100 µM | UACC-257 > 100 µM | UACC-62 > 100 µM | UO-31 > 100 µM
> 100 µM: HCT-15

CCCCCCCCCCCCCCC1OC(=O)c2ccccc21 (stereo unspecified)
inactive: 786-0 > 100 µM | A498 > 100 µM | A549 60.3 µM | ACHN 43.5 µM | CCRF-CEM 32.7 µM | DLD-1 71.4 µM | DMS-114 24 µM | EKVX 39.9 µM | HCT-116 34.6 µM | HL-60 15.6 µM | HOP-18 > 100 µM | HOP-62 > 100 µM | HT-29 35.8 µM | IGROV-1 89.5 µM | K562 30.6 µM | KM-20L2 42.9 µM | KM12 39.1 µM | LOX IMVI 86.1 µM | LXFL 529 77.1 µM | M14 > 100 µM | M19-MEL 85.7 µM | MOLT-4 36.7 µM | Malme-3M > 100 µM | NCI-H226 53.3 µM | NCI-H23 43.8 µM | NCI-H460 60.8 µM | OVCAR-3 79.8 µM | OVCAR-4 66.7 µM | OVCAR-5 31.7 µM | OVCAR-8 55.8 µM | RPMI-8226 32.2 µM | RXF 393 52 µM | RXF 631 > 100 µM | SF-268 > 100 µM | SF-295 > 100 µM | SF-539 > 100 µM | SK-MEL-28 > 100 µM | SK-OV-3 > 100 µM | SN12C 24.5 µM | SNB-19 > 100 µM | SNB-75 > 100 µM | SNB-78 > 100 µM | SR 42.5 µM | SW-620 63.4 µM | TK-10 > 100 µM | U-251 > 100 µM | UACC-257 52.7 µM | UACC-62 > 100 µM | UO-31 > 100 µM

Cc1ccc(N2C(=O)C(Cl)=C(Cl)C2=O)cc1
inactive: 786-0 17.3 µM | A498 > 100 µM | A549 37.6 µM | ACHN 19.6 µM | CAKI-1 17.1 µM | CCRF-CEM 5.11 µM | COLO 205 16.1 µM | DLD-1 20.9 µM | DMS-114 19 µM | DMS-273 62.5 µM | EKVX 21.5 µM | HCC 2998 34.4 µM | HCT-116 17 µM | HOP-18 19 µM | HOP-62 30.1 µM | HOP-92 18.2 µM | HT-29 19.1 µM | IGROV-1 20.8 µM | K562 18.7 µM | KM-20L2 24.2 µM | KM12 20.5 µM | LOX IMVI 23.6 µM | LXFL 529 19.1 µM | M14 19.2 µM | M19-MEL 21 µM | MOLT-4 16.4 µM | Malme-3M 18.7 µM | NCI-H226 > 100 µM | NCI-H23 20.7 µM | NCI-H460 > 100 µM | NCI-H522 13 µM | OVCAR-3 16.9 µM | OVCAR-4 19.2 µM | OVCAR-5 18 µM | RPMI-8226 18.8 µM | RXF 393 12.5 µM | RXF 631 21.1 µM | SF-268 17.9 µM | SF-295 71.8 µM | SF-539 25.2 µM | SK-MEL-28 16.5 µM | SK-MEL-2 > 100 µM | SK-MEL-5 40.9 µM | SK-OV-3 44 µM | SN12C 18.7 µM | SNB-19 > 100 µM | SNB-75 22.5 µM | SNB-78 24.2 µM | SR 21.3 µM | SW-620 19.7 µM | U-251 38.3 µM | UACC-257 19.1 µM | UACC-62 > 10 µM | UO-31 31.7 µM
19.2 µM: HCT-15
